pIC50: −log10 of the molar value.
Experiments:
[1] = system: MRC5; assay: Antiproliferative activity against human MRC5 cells after 72 hrs by MTT assay; assay type: cell-based; details: MRC5, 72 h
[2] = system: HL-60; assay: Antiproliferative activity against human HL60 cells after 72 hrs by MTT assay; assay type: functional, cell-based; details: HL-60, 72 h
[3] = system: HeLa; assay: Antiproliferative activity against human HeLa cells after 72 hrs by MTT assay; assay type: functional, cell-based
[4] = system: Raji; assay: Ratio of doxorubicin IC50 to compound IC50 for human Raji cells; assay type: functional
[5] = system: Jurkat; assay: Antiproliferative activity against human Jurkat cells after 72 hrs by MTT assay; assay type: functional, cell-based
[6] = system: Raji; assay: Antiproliferative activity against human Raji cells after 72 hrs by MTT assay; assay type: functional, cell-based
[7] = system: K562; assay: Antiproliferative activity against human K562 cells after 72 hrs by MTT assay; assay type: functional, cell-based; details: K562, 72 h

| pIC50 [2] | pIC50 [3] | pIC50 [5] | pIC50 [6] | pIC50 [7] | SMILES | pIC50 [1] | Ratio IC50 [4] |
| --- | --- | --- | --- | --- | --- | --- | --- |
|  |  |  |  |  | O=C1C[C@H]2O[C@H](Cc3ccccc3)[C@H](O)[C@H]2O1 | < 4.00 |  |
| < 4.00 |  |  |  |  | O=C1C[C@H]2O[C@H]([C@H](O)c3ccccc3)[C@H](O)[C@H]2O1 | < 4.00 |  |
| 6.77 | 5.92 | 6.92 | 7.52 | 7.70 | O=C1C[C@@H]2O[C@@H](Cc3ccccc3)[C@@H](O)[C@@H]2O1 | < 4.00 | 100 |
| 6.25 | 5.36 | 6.00 | 5.02 | 6.85 | O=C1C[C@H]2O[C@H](Cc3ccccc3)[C@H](OCc3ccccc3)[C@H]2O1 | < 4.00 |  |
| 4.93 | 4.94 | 4.67 | 5.25 | 5.81 | Cc1ccccc1[C@H](c1ccccc1)[C@H]1O[C@@H]2CC(=O)O[C@@H]2[C@H]1O | < 4.00 |  |
| 6.11 | < 4.00 | 7.13 | 6.34 | 5.84 | O=C1C[C@H]2O[C@@H]3[C@@H](c4ccccc4)c4ccccc4CO[C@@H]3[C@H]2O1 | < 4.00 |  |
| 4.93 | 5.18 | 4.73 | 4.80 | 5.92 | O=C1C[C@@H]2O[C@H]3[C@H](c4ccccc4)c4ccccc4CO[C@H]3[C@@H]2O1 | < 4.00 |  |

Reference: ChEMBL document CHEMBL2429810, “Heteroannelated and 7-deoxygenated goniofufurone mimics with antitumour activity: design, synthesis and preliminary SAR studies” (Bioorg Med Chem Lett, 2013)
